Results taken from patent publication EP4169506B1, “PALMITOYLETHANOLAMIDE-BASED COMPOSITION IN THE FORM OF POWDERS WITH HIGH ENTERIC BIOACCESSIBILITY” (Geofarma S.r.l., priority 2021, dated 2023).

Experiment: Dispersion in tap water, then in simulated gastric and enteric liquid (GSF, FaSSIF V2)
Assay type: physicochemical
Settings: 500 mg in 100 ml tap water, then GSF and FaSSIF V2, 37°C, 250 rpm, magnetic stirring (Figure 10)
Source text: • Figure 1. Representative image of the in vitro model of intestinal epithelium, with the Caco-2 cell monolayer grown on a Transwell® insert. • Figure 2. (A) Electron micrograph of enterocytes forming the Caco-2 monolayer with the microvilli and occluding junctions highlighted; (B) Confocal microscopy images highlighting the occluding junctions (red) and cell nuclei (blue). • Figure 3. Dimensional distribution of PEAMag®, normast® MPS microgranules and PEA of the invention measured by DLS at the end of the digestive process in vitro. • Figure 4. Bioaccessibility (A) and excreted fraction (B) of the PEA present in the three formulations, following exposure to the digestive process (* p<0.05). • Figure 5. Cell viability of intestinal epithelia exposed to digestive fluids in the absence of the formulations (0%) and increasing concentrations of PEAMag® (A), normast® MPS microgranules (B) and PEA of the invention (C) for 3 h (*cell viability < 70%). • Figure 6. TEER of intestinal epithelia exposed to digestive fluids in the absence of the formulations (0%) and increasing concentrations of PEAMag® (A), normast® MPS microgranules (B) and PEA of the invention (C) for 3 h. • Figure 7. […]

CCCCCCCCCCCCCCCC(=O)NCCO [PEA, Palmitoylethanolamide]
dispersion behaviour: emergence of the PEA on the surface of the liquid
